According to the NIST ThermoML archive (doi:10.1021/acs.jced.7b00386):

Details: Liquid; for mass density: Siemens ultrasonic flowmeter; for viscosity: Capillary tube (Ostwald / Ubbelohde) method

CCCCCCC(=O)OCC [ethyl heptanoate]
Details	mass density [kg/m3]	viscosity [mPa·s]
303.1 K, 6000 kPa	867.7	–
303.19 K, 14980 kPa	877.5	–
303.2 K, 100 kPa	860.8	–
303.2 K, 3020 kPa	864.5	–
303.2 K, 9010 kPa	871.2	–
303.21 K, 11950 kPa	874.5	–
312.72 K, 9120 kPa	–	1.006
312.73 K, 100 kPa	–	0.9036
312.77 K, 6100 kPa	–	0.9702
312.8 K, 3100 kPa	–	0.9452
312.96 K, 100 kPa	851.2	–
313.06 K, 3060 kPa	854.7	–
313.1 K, 12180 kPa	–	1.033
313.13 K, 6090 kPa	858.1	–
313.17 K, 9070 kPa	861.4	–
313.17 K, 15010 kPa	867.9	–
313.17 K, 15170 kPa	–	1.06
313.18 K, 12000 kPa	864.7	–
322.62 K, 100 kPa	–	0.7963
322.71 K, 3120 kPa	–	0.8252
322.76 K, 15110 kPa	–	0.9293
322.78 K, 6130 kPa	–	0.8471
322.85 K, 9090 kPa	–	0.8702
322.91 K, 12080 kPa	–	0.9036
323.09 K, 100 kPa	841.6	–
323.09 K, 15150 kPa	859.2	–
323.1 K, 9100 kPa	852.5	–
323.11 K, 3100 kPa	845.2	–
323.13 K, 12060 kPa	855.8	–
323.14 K, 6110 kPa	848.8	–
333.05 K, 100 kPa	832.1	–
333.14 K, 3010 kPa	835.6	–
333.14 K, 9020 kPa	843.2	–
333.14 K, 12010 kPa	846.8	–
333.18 K, 6080 kPa	839.7	–
333.2 K, 15070 kPa	850.5	–
333.42 K, 15070 kPa	–	0.8106
333.45 K, 100 kPa	–	0.7016
333.5 K, 12100 kPa	–	0.7844
333.57 K, 3070 kPa	–	0.7229
333.6 K, 9160 kPa	–	0.7629
333.63 K, 6130 kPa	–	0.7431
343.02 K, 100 kPa	823	–
343.06 K, 3010 kPa	827.1	–
343.16 K, 100 kPa	–	0.6217
343.19 K, 15000 kPa	842.1	–
343.2 K, 9000 kPa	834.8	–
343.22 K, 9070 kPa	–	0.6801
343.22 K, 12050 kPa	–	0.6996
343.22 K, 12100 kPa	838.5	–
343.23 K, 6050 kPa	831	–
343.27 K, 3070 kPa	–	0.6412
343.27 K, 15120 kPa	–	0.7191
343.38 K, 6080 kPa	–	0.6593
352.71 K, 100 kPa	–	0.5547
352.83 K, 3040 kPa	–	0.5733
352.85 K, 100 kPa	815.1	–
352.86 K, 6100 kPa	–	0.5898
352.9 K, 9030 kPa	–	0.6068
352.95 K, 3090 kPa	819.4	–
352.95 K, 12080 kPa	–	0.6227
353.04 K, 15040 kPa	–	0.6414
353.06 K, 9090 kPa	827.5	–
353.11 K, 6070 kPa	823.2	–
353.14 K, 12070 kPa	831.2	–
353.23 K, 15010 kPa	835.1	–

CCCCCCCC(=O)OCC [ethyl octanoate]
Details	mass density [kg/m3]	viscosity [mPa·s]
303.25 K, 100 kPa	858.1	–
303.26 K, 12080 kPa	871	–
303.3 K, 6080 kPa	864.4	–
303.32 K, 3120 kPa	861.3	–
303.32 K, 9130 kPa	867.8	–
303.33 K, 15080 kPa	874.1	–
312.87 K, 100 kPa	–	1.083
312.96 K, 3120 kPa	–	1.133
313.03 K, 6060 kPa	–	1.189
313.05 K, 100 kPa	849.5	–
313.08 K, 6150 kPa	856.1	–
313.08 K, 9090 kPa	–	1.211
313.1 K, 9150 kPa	859.6	–
313.1 K, 12100 kPa	862.7	–
313.11 K, 15110 kPa	865.9	–
313.12 K, 3140 kPa	853	–
313.12 K, 12070 kPa	–	1.245
313.14 K, 15240 kPa	–	1.284
323 K, 100 kPa	841.1	–
323.07 K, 100 kPa	–	0.9464
323.09 K, 3130 kPa	844.7	–
323.1 K, 6150 kPa	848.1	–
323.13 K, 9110 kPa	851.4	–
323.14 K, 12140 kPa	854.8	–
323.16 K, 3150 kPa	–	0.9842
323.16 K, 15050 kPa	858.1	–
323.17 K, 6110 kPa	–	1.016
323.17 K, 9080 kPa	–	1.043
323.17 K, 12070 kPa	–	1.064
323.19 K, 15060 kPa	–	1.098
333 K, 100 kPa	832.2	–
333.14 K, 100 kPa	–	0.8143
333.14 K, 3100 kPa	836.2	–
333.18 K, 6080 kPa	839.7	–
333.18 K, 9090 kPa	843.3	–
333.2 K, 12100 kPa	846.9	–
333.21 K, 15100 kPa	850.3	–
333.29 K, 3110 kPa	–	0.8536
333.3 K, 6060 kPa	–	0.8851
333.3 K, 9130 kPa	–	0.9101
333.3 K, 15090 kPa	–	0.9551
333.31 K, 12040 kPa	–	0.9301
342.78 K, 100 kPa	–	0.731
343.07 K, 6130 kPa	–	0.7776
343.1 K, 12150 kPa	838.8	–
343.11 K, 100 kPa	823.6	–
343.11 K, 3120 kPa	827.8	–
343.14 K, 6100 kPa	831.7	–
343.16 K, 9070 kPa	835	–
343.16 K, 9090 kPa	–	0.7968
343.17 K, 15000 kPa	842.1	–
343.22 K, 12100 kPa	–	0.8165
343.27 K, 15050 kPa	–	0.8446
343.41 K, 3120 kPa	–	0.7572
353.1 K, 100 kPa	814.5	–
353.16 K, 9130 kPa	826.8	–
353.21 K, 100 kPa	–	0.6393
353.21 K, 3150 kPa	819	–
353.24 K, 15070 kPa	834.4	–
353.25 K, 12140 kPa	830.7	–
353.27 K, 6150 kPa	823	–
353.32 K, 3120 kPa	–	0.6742
353.35 K, 6090 kPa	–	0.691
353.35 K, 12080 kPa	–	0.7292
353.36 K, 15060 kPa	–	0.7479
353.38 K, 9070 kPa	–	0.707
